Measured values: patent US7345082B2, “Phosphinic acids” (Hoffmann-La Roche Inc., priority 2003, dated 2008)

Biological target: T1, purified BACE protein (β-secretase) (Homo sapiens, UniProt P56817)
T1 construct: made in house
Assay: Competitive Radioligand Binding Assay (RLBA)
Settings: β-secretase inhibition; displacement of tritiated Compound A from BACE-coated plates, pH 4.1; read-out: IC50 in vitro
Procedure: Competitive Radioligand Binding Assay (RLBA)
96 well microplates (Optiplate Packard) are coated with purified BACE protein (see e.g. GB 2,385,124: Examples 1 and 2) using a concentration of 1 μg/ml in 30 mM sodium citrate buffer adjusted to pH 5.5. The coating is achieved by incubation of 100 μl/well for 1-3 days at 4° C. The plate is then washed with 2×300 μl/well of 10 mM citrate pH 4.1. To each well 100 μl binding buffer (30 mM citrate, 100 mM NaCl, 0.1% BSA, pH 4.1) is dispensed. The test compound is added in 5 μl from a DMSO stock solution or appropriate dilutions. To this the tracer (tritiated Compound A, see e.g. GB 2,385,124: Example 4) is added in 10 µl/well from a 10 μCi/ml stock solution in binding buffer. After incubation for 1.5-2 hours in a humid chamber at ambient temperature the plate is washed with 2×300 μl/well water and flipped on a dry towel. Following the addition of 50 μl/well Micro-Scint20 (Packard) the plate is sealed and vibrated for 5 seconds. The bound radioactivity is counted on a Topcount (Packard). Total binding is typically between 2000 and 10000 cpm/well depending mainly on the purity and concentration of the BACE protein. Non-specific binding as assessed by competition with >1 μM peptidic inhibitor (Bachem # H-4848) is typically between 30 and 300 cpm/well. The IC-50 values are calculated by Microsoft Excel FIT.

T1 sequence (P56817 46-501): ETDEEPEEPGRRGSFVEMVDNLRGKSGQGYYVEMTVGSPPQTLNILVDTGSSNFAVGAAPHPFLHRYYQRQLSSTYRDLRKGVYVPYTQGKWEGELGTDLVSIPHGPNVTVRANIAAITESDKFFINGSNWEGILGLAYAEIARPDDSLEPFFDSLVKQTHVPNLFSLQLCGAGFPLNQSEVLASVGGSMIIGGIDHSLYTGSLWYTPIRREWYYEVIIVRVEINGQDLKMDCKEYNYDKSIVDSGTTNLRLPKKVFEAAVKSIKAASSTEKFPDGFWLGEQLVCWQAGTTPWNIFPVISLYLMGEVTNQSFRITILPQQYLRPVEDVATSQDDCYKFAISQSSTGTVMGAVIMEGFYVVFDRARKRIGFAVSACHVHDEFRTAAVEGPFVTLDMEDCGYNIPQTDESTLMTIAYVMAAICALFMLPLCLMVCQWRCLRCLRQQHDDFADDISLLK

Row | IC50 [nM] | Compound
1 | 10 | CCCN(CCC)C(=O)c1cccc(C(=O)N[C@@H](Cc2ccccc2)P(=O)(O)CC(C)C(=O)Nc2ccccc2)c1 (mixture of isomers) [Compound I-18, [(R)-1-(3-dipropylcarbamoyl-benzoylamino)-2-phenyl-ethyl]-(2-phenylcarbamoyl-propyl)-phosphinic acid]
2 | 40 | CCCN(CCC)C(=O)c1cccc(C(=O)N[C@@H](Cc2ccccc2)P(=O)(O)CC(C)C(=O)NCCC(C)C)c1 (mixture of isomers) [Compound I-37, [(R)-1-(3-dipropylcarbamoyl-benzoylamino)-2-phenyl-ethyl]-[2-(3-methyl-butylcarbamoyl)-propyl]-phosphinic acid]
3 | 50 | CCCOc1cc(C(=O)N[C@@H](Cc2ccccc2)P(=O)(O)CC(C)C(=O)Nc2ccccc2)cc(N2CCCC2=O)c1 (stereo partly drawn) [Compound I-5, {(R)-1-[3-(2-oxo-pyrrolidin-1-yl)-5-propoxy-benzoylamino]-2-phenyl-ethyl}-(2-phenylcarbamoyl-propyl)-phosphinic acid]
4 | 200 | CCCN(CCC)C(=O)c1cccc(C(=O)NC(Cc2ccccc2)P(=O)(O)CC(C(=O)Nc2ccc(C)cc2)C(C)C)c1 (centres unmarked) [Compound I-14, [1-(3-dipropylcarbamoyl-benzoylamino)-2-phenyl-ethyl]-(3-methyl-2-p-tolylcarbamoyl-butyl)-phosphinic acid]
5 | 20 | CCCN(CCC)C(=O)c1cccc(C(=O)N[C@@H](Cc2ccccc2)P(=O)(O)CC(C)C(=O)NC2CCCCC2)c1 (stereo partly drawn) [Compound I-42, (2-cyclohexylcarbamoyl-propyl)-[(R)-1-(3-dipropylcarbamoyl-benzoylamino)-2-phenyl-ethyl]-phosphinic acid]
